According to patent publication EP2050455B1, “Compounds leading to an increase of the IL-12/IL-10 ratio and their use for therapy of infectious and proliferative diseases” (priority 2007, dated 2009):

Tests used:
MoDC [1] = conditions: Nishiguchi et al. (2001); cited from earlier work
iMoDC = assay: Phenotype modification: CD14 versus HLA-DR expression and phase contrast morphology; type: cell-based, Human; conditions: non-toxic concentrations, 20-48 hours (Example 3)
Experimental: Human peripheral blood monocytes were prepared by various well-established techniques. • (1) Blood drawing was carried out in the presence of the anticoagulant EDTA, separation of the nucleated cells by combined density/velocity gradient centrifugation, followed by selective adherence in the culture for one hour. The non-attached cells were washed off and the remaining population of highly enriched monocytes was further cultured. • (2) Alternatively, blood cells were recovered by leukapheresis, followed by counterflow elutriation. The highly enriched monocyte fraction was either freeze protected or taken into culture. Cells were cultured in a humidified incubator (37°C, 5% CO2).

[2] = system: IL-12p70 production of MoDC; assay: IL-12p70 production by ELISPOT assay (indicator culture); type: cell-based, Human
Experimental: (§1) The number of living cells was measured by Casy-technology. […] They were analysed for expression of CD14 versus HLA-DR. Morphology was assessed by phase contrast microscopy. […] MoDC were cultured in serum containing media (A) or serum free (B). They were left untreated (black), treated with maturation cocktail as positive control (green), or with 10 nM OspA-LP (red) for 48 hours and analysed by flow cytometry for viability or the expression of CD14, CD1a, CD86/CD80 double positive cells, CD83 and CD197 (CCR7). Data were collected from 4 independent experiments. The results are means ±SD. […] After another 24 hours the cells were analysed for IL-10 production by ELISPOT assay. […] The resulting values are given numbers of spots. […] All LP treated MoDC (red) were compared with untreated MoDC (black). The blue line represents 100 spots per 5x10^4 MoDC. […] They were analysed for IL-10 (left) and IL-12p70 production (right). Shown are 3 independent experiments using cells from different healthy donors. Compared to the untreated controls (black), IL-10 production is not depressed by LPS R60/IFN-γ (red). […] (A) number of cytokine producing cells: IL-10 (black); IL-12p70 (red). (B) ratio of IL-12p70/IL-10 producing cells. […] The resulting cells were analysed for the surface expression of both CD80 and CD86 in dot plot analyses (A), and CD83 histogram overlay (B).
(§2) This culture imitates the fate of DC after injecting them into an organism and is designed to test the actual production and release of IL-12 and IL-10 during this phase. This is tested by the well-known ELISPOT-assay. For this phase the previous inducers were either sustained or washed out. Also, further inducers were added. Number of spots as well as the intensity of spots could be read out. Therefore, this setup does more realistically reflect the actual functional state of DC at the time of injection and thereafter.

MoDC [3] = assay: Surface marker expression / maturation of MoDC by flow cytometry; type: cell-based, Human
Experimental: as §1
Cytokines GM-CSF (800 IU/ml; Bayer Healthcare Pharmaceutical) plus GMP-certified IL-4 (500 IU/ml; CellGenix, Freiburg, Germany) were added to induce transdifferentiation from monocytes to immature monocyte-derived dendritic cells (iMoDC). After 5-7 days of culture iMoDC were analysed for the surface markers CD1a, CD209 und CD14 using the antibodies listed in the following table. Table
Maturation signals were added, including signals to trigger polarisation. The cells were further cultured for another 2 days.
Alternatively, the maturation phase was split into individual steps: • Step 1: TLR agonists lipopeptides • Step 2: presence of the previous inducers, TLR agonists lipopolysaccharide added in the presence of IFN-γ.

IL-10 production of MoDC = assay: IL-10 production by ELISPOT assay (indicator culture); type: cell-based, Human
Experimental: as §1, §2

[4] = non-toxic concentrations, 20-48 hours (Example 3)

For FSL-1, the “Maturation of DC” value (MoDC [1]) is given as “incompletely”, the cell phenotype (iMoDC) is given as “modification” and the IL-12p70 production ([2]; OspA-LP 10 nM, FSL-1 1 nM, FSL-2 1 nM, alone or combined with IFN-γ (500 IU/ml), 24 hours (Figure 6)) is given as “remains extremely low”. The “production of IL-12” value ([2]; immature DC) was “No effect”, the IL-12p70 production [2, 4] was “only poorly stimulated” and the “Maturation of MoDC (surface expression of CD80, CD86, CD83)” value (MoDC [3]; FSL-1 LP 1 nM, LPS R60 1 µg/ml / IFN-γ 500 IU/ml, single or sequential (Figure 10)) was “only incomplete maturation”. For the same substance, the “Costimulatory signals (CD80, CD86)” value (MoDC [3]; [4]) was “upregulated”, the “maturation as measured by expression of CD83” value (MoDC [3]; [4]) was “No complete maturation” and the “IL-10-secretion of immature DC” value (IL-10 production of MoDC; ELISPOT) was “down-regulation”. The IL-10 production (IL-10 production of MoDC; OspA-LP 10 nM, FSL-1 1 nM, FSL-2 1 nM, alone or combined with IFN-γ (500 IU/ml), 24 hours, vs untreated (Figure 6)) was “downregulated” and the IL-10 secreting cells (IL-10 production of MoDC; non-toxic concentrations, 20-48 hours, dose-dependent, donor-independent (Example 3)) was “decrease”.
